Laboratory results: PubChem BioAssay (NCI)
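The compound was tested at five concentrations on cells cultured in 96-well plates, with a 48-hour exposure period. TGI: concentration producing complete growth inhibition.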

Key:
Experiment in all cases: NCI anticancer screen, dose series, 48 h
HS 578T breast = system: HS 578T breast
HCT-116 colon = system: HCT-116 colon
M14 melanoma = system: M14 melanoma
EKVX NSCLC = system: EKVX NSCLC
BT-549 breast = system: BT-549 breast
HCT-15 colon = system: HCT-15 colon
MOLT-4 leukemia = system: MOLT-4 leukemia
NCI-H460 lung = system: NCI-H460 lung
HOP-62 NSCLC = system: HOP-62 NSCLC
SK-OV-3 ovarian = system: SK-OV-3 ovarian
SW-620 colon = system: SW-620 colon
MDA-MB-231 breast = system: MDA-MB-231 breast
U251 CNS = system: U251 CNS
COLO 205 colon = system: COLO 205 colon
SK-MEL-5 melanoma = system: SK-MEL-5 melanoma
UO-31 renal = system: UO-31 renal
NCI/ADR-RES ovarian = system: NCI/ADR-RES ovarian
SF-268 CNS = system: SF-268 CNS
NCI-H226 lung = system: NCI-H226 lung
SR leukemia = system: SR leukemia
NCI-H23 lung = system: NCI-H23 lung
HCC-2998 colon = system: HCC-2998 colon
OVCAR-8 ovarian = system: OVCAR-8 ovarian
UACC-62 melanoma = system: UACC-62 melanoma
TK-10 renal = system: TK-10 renal
NCI-H522 lung = system: NCI-H522 lung
ACHN renal = system: ACHN renal
RXF 393 renal = system: RXF 393 renal
SK-MEL-28 melanoma = system: SK-MEL-28 melanoma
OVCAR-5 ovarian = system: OVCAR-5 ovarian
786-0 renal = system: 786-0 renal
SNB-19 CNS = system: SNB-19 CNS
UACC-257 melanoma = system: UACC-257 melanoma
MDA-N = system: MDA-N
SF-539 CNS = system: SF-539 CNS
RPMI-8226 leukemia = system: RPMI-8226 leukemia
A498 renal = system: A498 renal
PC-3 prostate = system: PC-3 prostate
OVCAR-4 ovarian = system: OVCAR-4 ovarian
MALME-3M melanoma = system: MALME-3M melanoma
DU-145 prostate = system: DU-145 prostate
T-47D breast = system: T-47D breast
CAKI-1 renal = system: CAKI-1 renal
HL-60(TB) leukemia = system: HL-60(TB) leukemia
SK-MEL-2 melanoma = system: SK-MEL-2 melanoma
KM12 colon = system: KM12 colon
HOP-92 NSCLC = system: HOP-92 NSCLC
K-562 leukemia = system: K-562 leukemia
SNB-75 CNS = system: SNB-75 CNS
SF-295 CNS = system: SF-295 CNS
MCF7 breast = system: MCF7 breast
LOX IMVI melanoma = system: LOX IMVI melanoma
SN12C renal = system: SN12C renal
OVCAR-3 ovarian = system: OVCAR-3 ovarian
IGROV1 ovarian = system: IGROV1 ovarian
HT29 colon = system: HT29 colon
A549 NSCLC = system: A549 NSCLC
MDA-MB-435 = system: MDA-MB-435

Measured: TGI

CC1=NN(c2cccc(S(=O)(=O)O)c2)C2(C1)SCC(=O)N2c1nc2ccccc2s1 (stereo not drawn)
> 100 µM: HS 578T breast | HCT-116 colon | M14 melanoma | EKVX NSCLC | BT-549 breast | HCT-15 colon | MOLT-4 leukemia | NCI-H460 lung | HOP-62 NSCLC | SK-OV-3 ovarian | SW-620 colon | MDA-MB-231 breast | U251 CNS | COLO 205 colon | SK-MEL-5 melanoma | UO-31 renal | NCI/ADR-RES ovarian | SF-268 CNS | NCI-H226 lung | SR leukemia | NCI-H23 lung | HCC-2998 colon | OVCAR-8 ovarian | UACC-62 melanoma | TK-10 renal | NCI-H522 lung | ACHN renal | RXF 393 renal | SK-MEL-28 melanoma | OVCAR-5 ovarian | 786-0 renal | SNB-19 CNS | UACC-257 melanoma | MDA-N | SF-539 CNS | RPMI-8226 leukemia | A498 renal | PC-3 prostate | OVCAR-4 ovarian | MALME-3M melanoma | DU-145 prostate | T-47D breast | CAKI-1 renal | HL-60(TB) leukemia | SK-MEL-2 melanoma | KM12 colon | HOP-92 NSCLC | K-562 leukemia | SNB-75 CNS | SF-295 CNS | MCF7 breast | LOX IMVI melanoma | SN12C renal | OVCAR-3 ovarian | IGROV1 ovarian | HT29 colon | A549 NSCLC | MDA-MB-435
